How the values were obtained:
Assay type in all cases: in vivo
Brachiaria decumbens = assay: % weed control in soybean crop, spray application to soil; parameters: concentration or dose not given beside the values; settings: average of 4 replications; for % Weed Control 7 DAA: 7 days after administration; for % Weed Control 14 DAA: 14 days after administration; for % Weed Control 21 DAA: 21 days after administration; for % Weed Control 28 DAA: 28 days after administration; for % Weed Control 35 DAA: 35 days after administration
Description: (§1) Below table gives summary of the formulation details and application details of Sulfentrazone and Mefenpyr-diethyl, Isoxadifen-ethyl and Cloquintocet-mexyl that were used in combination with Sulfentrazone for treatments. Application method was spray and applications were made to soil.
(§2) Below table gives summary of the formulation details and application details of Sulfentrazone and Dichlormid, Fenclorim, Benoxacor, Flurazole and Fluxofenim that were used in combination with Sulfentrazone for treatments. Application method was spray and applications were made to soil.
Below table gives summary of % weed control shown in soybean crop by untreated check, Sulfentrazone alone and combination of Sulfentrazone with Mefenpyr-diethyl, Isoxadifen-ethyl and Cloquintocet-mexyl at different application rates. % weed control was checked for weed Brachiaria decumbens.
Below table gives summary of % weed control in soybean crop shown by untreated check, Sulfentrazone alone and combination of Sulfentrazone with Dichlormid, Fenclorim, Benoxacor, Flurazole and Fluxofenim at different application rates. % weed control was checked for weed Brachiaria decumbens.

soybean plant = assay: Effect on plant height of soybean plant; settings: average of 4 replications; for Plant height 14 DAA: 14 days after administration; for Plant height 28 DAA: 28 days after administration
Experimental: (§3) Experiments were carried out to evaluate the phytotoxicity, effect on plant height and effect on number of plants standing after treatments with combinations of one or more triazolone herbicides with one or more safeners.
as §1, §2
Below table gives summary of effect on plant height of soybean plant shown by untreated check, Sulfentrazone alone and combination of Sulfentrazone with Mefenpyr-diethyl, Isoxadifen-ethyl and Cloquintocet-mexyl at different application rates.
Below table gives summary of effect on plant height of soybean plant shown by untreated check, Sulfentrazone alone and combination of Sulfentrazone with Dichlormid, Fenclorim, Benoxacor, Flurazole and Fluxofenim at different application rates.

soybean plants = assay: Number of soybean plants standing after herbicidal treatment; settings: average of 4 replications; for Number of plants standing 14 DAA: 14 days after administration; for Number of plants standing 28 DAA: 28 days after administration
Experimental: as §3, §1, §2
Below table gives summary of effect on number of soybean plants standing after herbicidal treatment shown by untreated check, Sulfentrazone alone and combination of Sulfentrazone with Mefenpyr-diethyl, Isoxadifen-ethyl and Cloquintocet-mexyl at different application rates.
Below table gives summary of effect on number of soybean plants standing after herbicidal treatment shown by untreated check, Sulfentrazone alone and combination of Sulfentrazone with Dichlormid, Fenclorim, Benoxacor, Flurazole and Fluxofenim at different application rates.

[1] = treatments 1-8 (rates in Table 1)
[2] = treatments 9-20 (rates in Table 2)

| SMILES | % Weed Control 7 DAA (Brachiaria decumbens; [1]) | % Weed Control 14 DAA (Brachiaria decumbens; [1]) | % Weed Control 21 DAA (Brachiaria decumbens; [1]) | % Weed Control 28 DAA (Brachiaria decumbens; [1]) | % Weed Control 35 DAA (Brachiaria decumbens; [1]) | Plant height 14 DAA (soybean plant; [1]) | Plant height 28 DAA (soybean plant; [1]) | Number of plants standing 14 DAA (soybean plants; [1]) | Number of plants standing 28 DAA (soybean plants; [1]) | % Weed Control 7 DAA (Brachiaria decumbens; [2]) | % Weed Control 14 DAA (Brachiaria decumbens; [2]) | % Weed Control 21 DAA (Brachiaria decumbens; [2]) | % Weed Control 28 DAA (Brachiaria decumbens; [2]) | % Weed Control 35 DAA (Brachiaria decumbens; [2]) | Plant height 14 DAA (soybean plant; [2]) | Plant height 28 DAA (soybean plant; [2]) | Number of plants standing 14 DAA (soybean plants; [2]) | Number of plants standing 28 DAA (soybean plants; [2]) |
| --- | --- | --- | --- | --- | --- | --- | --- | --- | --- | --- | --- | --- | --- | --- | --- | --- | --- | --- |
| Cc1nn(-c2cc(NS(C)(=O)=O)c(Cl)cc2Cl)c(=O)n1C(F)F [Treatment 2] | 100% | 100% | 100% | 100% | 100% | 2.90 | 5.15 | 5.3 | 4.5 |  |  |  |  |  |  |  |  |  |
| Cc1nn(-c2cc(NS(C)(=O)=O)c(Cl)cc2Cl)c(=O)n1C(F)F [Treatment 10] |  |  |  |  |  |  |  |  |  | 100% | 100% | 100% | 100% | 100% | 6.65 | 10.90 | 5.3 | 5.3 |

Reference: patent US12593846B2, “Combinations of triazolone herbicides with safeners” (priority 2020, dated 2026)
